A short description of data set [1]: Relative oral, non-gastric retention bioavailability of irinotecan and SN-38 derived from literature. The format is in vivo. To be noted: human, blood (bloodstream); oral non-gastric retention relative to intravenous; read-out: Calculated Relative Bioavailabilty of Lactone [formula].
Excerpt: Quantity “A” is the total area under the bloodstream concentration curve over time.
ATotal=ALactone+ACarboxylate is the sum of the areas under the curve of lactone and carboxylate forms of the species.
For data set [2] the following is noted: cited from earlier work.
In data set [3] the target is T1, topoisomerase I (Homo sapiens, UniProt P11387).
T1 sequence (P11387 1-765): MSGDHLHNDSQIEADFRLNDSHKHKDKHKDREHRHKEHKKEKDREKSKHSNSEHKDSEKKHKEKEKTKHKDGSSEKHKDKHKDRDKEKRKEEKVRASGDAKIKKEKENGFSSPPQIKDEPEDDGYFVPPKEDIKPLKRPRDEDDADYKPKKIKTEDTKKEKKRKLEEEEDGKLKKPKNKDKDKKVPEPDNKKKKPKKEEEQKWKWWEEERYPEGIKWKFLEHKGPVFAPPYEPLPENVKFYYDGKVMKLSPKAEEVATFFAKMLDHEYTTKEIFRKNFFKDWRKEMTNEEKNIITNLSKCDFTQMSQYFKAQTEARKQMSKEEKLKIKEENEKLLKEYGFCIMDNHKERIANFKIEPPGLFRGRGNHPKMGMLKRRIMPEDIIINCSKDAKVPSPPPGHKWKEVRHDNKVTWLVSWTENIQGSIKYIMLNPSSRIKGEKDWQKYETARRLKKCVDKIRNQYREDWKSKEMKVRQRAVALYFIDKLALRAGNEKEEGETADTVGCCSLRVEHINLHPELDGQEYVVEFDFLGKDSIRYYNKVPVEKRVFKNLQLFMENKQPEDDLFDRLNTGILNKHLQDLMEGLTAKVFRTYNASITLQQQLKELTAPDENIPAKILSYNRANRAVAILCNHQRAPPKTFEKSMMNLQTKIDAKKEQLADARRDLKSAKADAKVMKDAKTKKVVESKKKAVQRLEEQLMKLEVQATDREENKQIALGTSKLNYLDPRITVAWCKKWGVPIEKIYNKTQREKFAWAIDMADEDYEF
To be noted: cited from earlier work.

Data set [4] is described as follows: Systemic delivery of irinotecan and SN-38 after GRDS tablet versus i.v. in the beagle dog. To be noted: irinotecan in gastric retention dosage form, oral.
Description: A plot of plasma concentration against time allows calculation of the area under the curves and the relative bioavailability of the various forms of the drug.
Prior to the study, an adequate amount (5-10 ml) of whole blood is drawn from each dog. The blood is used to prepare the standard calibration reference curve. At the study, the foreleg (right or left, as deemed appropriate by the animal handler), is shaved using an electric shaver, and the area cleansed with a chlorhexidine swab. A permanent in-dwelling polyethylene catheter is inserted using a 23 gauge needle in the cephalic vein in the foreleg of each dog and taped in place to allow for periodic blood sampling over 12 hours. […]
At each time point, 2.0 ml blood is removed by syringe and then placed into a pre-labeled heparinized test tube. […] The concentration of the components are measured using literature HPLC methods.
The dogs are fasted overnight for a period of at least 12 hours at which time they receive a single mixed meal of solid food and liquid nutrients. 250 grams of bite-size commercial dog chow (Bonzo Feed®) are measured and placed in a feeding dish. […] The food remaining in the dish is measured and the difference from the original 250 grams is recorded as the amount of food consumed. […]
Two hours after the meal, the dog is dosed with the test tablet. […] The methanol samples are analyzed by HPLC. […]

Regarding `CCc1c2c(nc3ccc(OC(=O)N4CCC(N5CCCCC5)CC4)cc13)-c1cc3c(c(=O)n1C2)COC(=O)[C@]3(O)CC` [Irinotecan], the bioavailability in data set [1] is 12%.
In the case of `CCc1c2c(nc3ccc(O)cc13)-c1cc3c(c(=O)n1C2)COC(=O)[C@]3(O)CC` [SN-38, 7-ethyl-10-hydroxycamptothecin], in data set [2] (irinotecan given intravenously), the “[formula] ratio of lactone AUC to total AUC, intravenous” value is reported as 0.50. The “[formula] overall delivery to the bloodstream, total AUC oral relative to intravenous” value in data set [2] (irinotecan given orally, conventional non-gastric retention, vs IV, lactone + carboxylate) is on record as 0.16. Further, the “[formula] ratio absorbed in the lactone form (lactone AUC / total AUC), oral” value in data set [2] (irinotecan given orally, conventional non-gastric retention) is 0.73. Besides, the “Potency as inhibitor of topoisomerase I relative to irinotecan” value in data set [3] is on record as “approximately a thousand times more potent”. The “Ratio absorbed in the lactone form [formula]” value in data set [4] is reported as 0.9. The “Overall delivery to the bloodstream [formula], gastric retention relative to intravenous” value in data set [4] (vs IV) amounted to 0.4.

The record behind these values is patent US6881420B2 (Teva Pharmaceutical Industries Ltd., priority 2000, dated 2005).
